Test results published in ChEMBL document CHEMBL1201862, “PubChem BioAssay data set” (2004).
Each block holds one compound with its values, some of them ahead of it. Activity calls are given as the source filed them.

Columns and labels:
Large T antigen = Large T antigen (Simian virus 40, UniProt P03070); format: functional, Betapolyomavirus macacae;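 also: Confirmatory-stage PubChem screen for compounds that inhibit SV40 T antigen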
[1] = biological target: Induced myeloid leukemia cell differentiation protein Mcl-1 (Homo sapiens, UniProt Q07820); format: functional
Paired box protein Pax-8 = Paired box protein Pax-8 (Homo sapiens, UniProt Q06710); test: inhibitors of PAX8-driven TPO luciferase reporter, dose response, RMG-I cells, cherry-pick (AID 687027); format: functional, cell-based;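 also: luciferase reporter driven by Pax8 target thyroperoxidase promoter measured by SteadyGlo luminescence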
[2] = NIH-3T3 fibroblast cytotoxicity, dose response, cytotoxicity control, cell-based, fluorescence, Alamar Blue, secondary assay (AID 2327); format: functional;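 also: NIH-3T3 mouse fibroblasts cultured with fluconazole at 8 µg/mL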
[3] = biological target: T1, Short transient receptor potential channel 4 (Mus musculus, UniProt Q9QUQ5); test: mouse TRPC4 channel inhibitors, dose response, cell-based, HEK293 TRPC4/mu-opioid, Fluo-4 calcium (AID 434942); format: functional;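 also: potency of inhibitors blocking the TRPC4 calcium response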
T1 sequence (Q9QUQ5 whole entry): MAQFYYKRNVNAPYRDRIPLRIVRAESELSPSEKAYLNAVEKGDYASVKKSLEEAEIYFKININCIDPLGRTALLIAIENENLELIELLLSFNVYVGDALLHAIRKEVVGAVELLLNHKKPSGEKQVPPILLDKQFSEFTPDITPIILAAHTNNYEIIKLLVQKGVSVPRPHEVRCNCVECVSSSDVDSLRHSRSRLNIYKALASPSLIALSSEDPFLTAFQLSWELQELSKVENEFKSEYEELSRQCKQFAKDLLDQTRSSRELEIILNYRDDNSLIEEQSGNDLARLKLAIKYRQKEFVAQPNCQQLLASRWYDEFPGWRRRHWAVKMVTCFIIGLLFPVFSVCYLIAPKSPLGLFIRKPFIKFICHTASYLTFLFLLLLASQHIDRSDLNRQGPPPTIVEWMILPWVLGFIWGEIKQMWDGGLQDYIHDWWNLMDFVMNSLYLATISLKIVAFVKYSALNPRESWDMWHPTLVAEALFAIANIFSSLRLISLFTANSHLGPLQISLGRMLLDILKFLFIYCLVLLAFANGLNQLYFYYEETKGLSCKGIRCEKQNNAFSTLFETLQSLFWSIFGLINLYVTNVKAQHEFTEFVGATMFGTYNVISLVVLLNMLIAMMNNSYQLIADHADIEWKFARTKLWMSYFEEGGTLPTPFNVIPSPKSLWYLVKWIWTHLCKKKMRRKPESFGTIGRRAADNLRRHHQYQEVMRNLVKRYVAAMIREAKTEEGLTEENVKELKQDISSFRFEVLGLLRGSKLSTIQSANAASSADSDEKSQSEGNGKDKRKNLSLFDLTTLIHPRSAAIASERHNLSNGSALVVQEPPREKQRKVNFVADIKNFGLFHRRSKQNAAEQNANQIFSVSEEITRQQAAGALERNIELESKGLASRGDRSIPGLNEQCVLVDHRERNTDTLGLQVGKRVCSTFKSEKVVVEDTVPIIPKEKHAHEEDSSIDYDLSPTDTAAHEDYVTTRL

Cytochrome P450 2C19 = Cytochrome P450 2C19 (Homo sapiens, UniProt P33261); test: Cytochrome panel assay with activity outcomes. Panel member name: p450-cyp2c19 Compounds with AC50 equal or less than 10 uM are considered active; format: functional; details: read-out: AC50
Fatty acid synthase [4] = biological target: T2, Fatty acid synthase (Homo sapiens, UniProt P49327); test: FAS thioesterase domain inhibitors, dose response, biochemical, endpoint fluorescence intensity, uHTS hits (AID 624327); format: functional;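 also: fluorescence from hydrolysis of an O-methyl fluorescein acyl ester substrate by the enzyme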
Fatty acid synthase [5] = biological target: T2, Fatty acid synthase; test: FAS thioesterase domain inhibitors, dose response, biochemical, kinetic fluorescence intensity (AID 624326); format: functional;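 also: rate of fluorescence rise from hydrolysis of a fluorogenic O-methyl fluorescein ester substrate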
[6] = biological target: T3, Heat shock factor protein 1 (Mus musculus, UniProt P38532); test: HSF1 potentiators in luciferase reporter cells, confirmation, cell-based, NIH3T3, luminescence, dose retest (AID 435004); format: functional;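 also: stress induced by proteasome inhibitor MG132 added 30 min after compound; luciferase reporter driven by HSF1 response element in NIH3T3 cells; actives raise luminescence as potentiators of the MG132 stress response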
T3 sequence (P38532 whole entry): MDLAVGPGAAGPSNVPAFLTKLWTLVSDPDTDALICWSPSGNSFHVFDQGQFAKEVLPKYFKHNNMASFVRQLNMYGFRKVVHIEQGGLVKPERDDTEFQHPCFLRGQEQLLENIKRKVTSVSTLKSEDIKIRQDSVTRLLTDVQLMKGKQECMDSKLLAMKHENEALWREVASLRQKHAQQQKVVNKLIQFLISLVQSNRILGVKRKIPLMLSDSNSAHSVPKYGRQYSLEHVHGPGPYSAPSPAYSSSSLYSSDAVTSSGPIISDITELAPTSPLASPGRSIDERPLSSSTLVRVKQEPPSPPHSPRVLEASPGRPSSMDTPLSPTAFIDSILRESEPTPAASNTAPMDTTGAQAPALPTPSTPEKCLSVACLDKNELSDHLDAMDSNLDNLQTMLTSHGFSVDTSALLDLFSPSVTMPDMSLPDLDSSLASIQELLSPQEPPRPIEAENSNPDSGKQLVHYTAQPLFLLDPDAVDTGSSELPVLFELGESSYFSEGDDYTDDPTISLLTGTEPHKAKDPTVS

[7] = inhibitors of intracellular T. cruzi replication, confirmation, NIH3T3 host cells, beta-gal luminescence (AID 2044); format: functional, cell-based;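 also: intracellular parasites grown in NIH/3T3 mouse fibroblasts as host cells; luminescent beta-galactosidase reporter signal from transgenic T. cruzi replicating inside host cells; inhibitors lower the luminescence signal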
[8] = cytotoxicity toward NIH3T3 fibroblasts, dose response, counter-screen, cell-based, ATP luminescence, mouse fibroblasts (AID 2010); format: functional;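 also: cells exposed to compound for about 90 hours before reading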
Protein skinhead-1 = biological target: T4, Protein skinhead-1 (Caenorhabditis elegans, UniProt P34707); format: functional
T4 sequence (P34707 whole entry): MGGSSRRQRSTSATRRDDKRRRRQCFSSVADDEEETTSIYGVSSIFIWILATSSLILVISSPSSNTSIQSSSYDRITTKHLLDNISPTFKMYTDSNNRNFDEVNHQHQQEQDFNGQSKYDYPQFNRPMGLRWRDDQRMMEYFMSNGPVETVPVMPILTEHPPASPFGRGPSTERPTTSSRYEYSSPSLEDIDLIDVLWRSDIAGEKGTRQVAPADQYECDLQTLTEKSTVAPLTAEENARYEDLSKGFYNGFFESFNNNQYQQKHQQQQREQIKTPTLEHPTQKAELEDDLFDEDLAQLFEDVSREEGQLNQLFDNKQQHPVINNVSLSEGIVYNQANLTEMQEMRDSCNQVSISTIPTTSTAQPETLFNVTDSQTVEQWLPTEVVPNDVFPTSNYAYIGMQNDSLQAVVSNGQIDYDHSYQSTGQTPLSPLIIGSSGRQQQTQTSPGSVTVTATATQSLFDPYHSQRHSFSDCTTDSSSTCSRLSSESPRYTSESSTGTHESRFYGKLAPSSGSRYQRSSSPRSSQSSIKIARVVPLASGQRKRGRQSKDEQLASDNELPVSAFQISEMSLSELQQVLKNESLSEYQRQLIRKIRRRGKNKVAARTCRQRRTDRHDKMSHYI

Sequence of Induced myeloid leukemia cell differentiation protein Mcl-1 (Q07820 whole entry): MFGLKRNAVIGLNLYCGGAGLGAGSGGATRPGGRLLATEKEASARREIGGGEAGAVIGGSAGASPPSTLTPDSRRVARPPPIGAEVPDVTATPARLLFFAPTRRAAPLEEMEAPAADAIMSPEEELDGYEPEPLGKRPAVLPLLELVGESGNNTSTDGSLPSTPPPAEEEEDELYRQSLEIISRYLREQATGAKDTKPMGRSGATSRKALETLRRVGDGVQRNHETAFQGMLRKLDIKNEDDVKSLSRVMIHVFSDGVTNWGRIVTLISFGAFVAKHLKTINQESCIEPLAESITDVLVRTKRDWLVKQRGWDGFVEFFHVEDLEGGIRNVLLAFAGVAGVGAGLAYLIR
T2 sequence (P49327 whole entry, the tested form may be a part): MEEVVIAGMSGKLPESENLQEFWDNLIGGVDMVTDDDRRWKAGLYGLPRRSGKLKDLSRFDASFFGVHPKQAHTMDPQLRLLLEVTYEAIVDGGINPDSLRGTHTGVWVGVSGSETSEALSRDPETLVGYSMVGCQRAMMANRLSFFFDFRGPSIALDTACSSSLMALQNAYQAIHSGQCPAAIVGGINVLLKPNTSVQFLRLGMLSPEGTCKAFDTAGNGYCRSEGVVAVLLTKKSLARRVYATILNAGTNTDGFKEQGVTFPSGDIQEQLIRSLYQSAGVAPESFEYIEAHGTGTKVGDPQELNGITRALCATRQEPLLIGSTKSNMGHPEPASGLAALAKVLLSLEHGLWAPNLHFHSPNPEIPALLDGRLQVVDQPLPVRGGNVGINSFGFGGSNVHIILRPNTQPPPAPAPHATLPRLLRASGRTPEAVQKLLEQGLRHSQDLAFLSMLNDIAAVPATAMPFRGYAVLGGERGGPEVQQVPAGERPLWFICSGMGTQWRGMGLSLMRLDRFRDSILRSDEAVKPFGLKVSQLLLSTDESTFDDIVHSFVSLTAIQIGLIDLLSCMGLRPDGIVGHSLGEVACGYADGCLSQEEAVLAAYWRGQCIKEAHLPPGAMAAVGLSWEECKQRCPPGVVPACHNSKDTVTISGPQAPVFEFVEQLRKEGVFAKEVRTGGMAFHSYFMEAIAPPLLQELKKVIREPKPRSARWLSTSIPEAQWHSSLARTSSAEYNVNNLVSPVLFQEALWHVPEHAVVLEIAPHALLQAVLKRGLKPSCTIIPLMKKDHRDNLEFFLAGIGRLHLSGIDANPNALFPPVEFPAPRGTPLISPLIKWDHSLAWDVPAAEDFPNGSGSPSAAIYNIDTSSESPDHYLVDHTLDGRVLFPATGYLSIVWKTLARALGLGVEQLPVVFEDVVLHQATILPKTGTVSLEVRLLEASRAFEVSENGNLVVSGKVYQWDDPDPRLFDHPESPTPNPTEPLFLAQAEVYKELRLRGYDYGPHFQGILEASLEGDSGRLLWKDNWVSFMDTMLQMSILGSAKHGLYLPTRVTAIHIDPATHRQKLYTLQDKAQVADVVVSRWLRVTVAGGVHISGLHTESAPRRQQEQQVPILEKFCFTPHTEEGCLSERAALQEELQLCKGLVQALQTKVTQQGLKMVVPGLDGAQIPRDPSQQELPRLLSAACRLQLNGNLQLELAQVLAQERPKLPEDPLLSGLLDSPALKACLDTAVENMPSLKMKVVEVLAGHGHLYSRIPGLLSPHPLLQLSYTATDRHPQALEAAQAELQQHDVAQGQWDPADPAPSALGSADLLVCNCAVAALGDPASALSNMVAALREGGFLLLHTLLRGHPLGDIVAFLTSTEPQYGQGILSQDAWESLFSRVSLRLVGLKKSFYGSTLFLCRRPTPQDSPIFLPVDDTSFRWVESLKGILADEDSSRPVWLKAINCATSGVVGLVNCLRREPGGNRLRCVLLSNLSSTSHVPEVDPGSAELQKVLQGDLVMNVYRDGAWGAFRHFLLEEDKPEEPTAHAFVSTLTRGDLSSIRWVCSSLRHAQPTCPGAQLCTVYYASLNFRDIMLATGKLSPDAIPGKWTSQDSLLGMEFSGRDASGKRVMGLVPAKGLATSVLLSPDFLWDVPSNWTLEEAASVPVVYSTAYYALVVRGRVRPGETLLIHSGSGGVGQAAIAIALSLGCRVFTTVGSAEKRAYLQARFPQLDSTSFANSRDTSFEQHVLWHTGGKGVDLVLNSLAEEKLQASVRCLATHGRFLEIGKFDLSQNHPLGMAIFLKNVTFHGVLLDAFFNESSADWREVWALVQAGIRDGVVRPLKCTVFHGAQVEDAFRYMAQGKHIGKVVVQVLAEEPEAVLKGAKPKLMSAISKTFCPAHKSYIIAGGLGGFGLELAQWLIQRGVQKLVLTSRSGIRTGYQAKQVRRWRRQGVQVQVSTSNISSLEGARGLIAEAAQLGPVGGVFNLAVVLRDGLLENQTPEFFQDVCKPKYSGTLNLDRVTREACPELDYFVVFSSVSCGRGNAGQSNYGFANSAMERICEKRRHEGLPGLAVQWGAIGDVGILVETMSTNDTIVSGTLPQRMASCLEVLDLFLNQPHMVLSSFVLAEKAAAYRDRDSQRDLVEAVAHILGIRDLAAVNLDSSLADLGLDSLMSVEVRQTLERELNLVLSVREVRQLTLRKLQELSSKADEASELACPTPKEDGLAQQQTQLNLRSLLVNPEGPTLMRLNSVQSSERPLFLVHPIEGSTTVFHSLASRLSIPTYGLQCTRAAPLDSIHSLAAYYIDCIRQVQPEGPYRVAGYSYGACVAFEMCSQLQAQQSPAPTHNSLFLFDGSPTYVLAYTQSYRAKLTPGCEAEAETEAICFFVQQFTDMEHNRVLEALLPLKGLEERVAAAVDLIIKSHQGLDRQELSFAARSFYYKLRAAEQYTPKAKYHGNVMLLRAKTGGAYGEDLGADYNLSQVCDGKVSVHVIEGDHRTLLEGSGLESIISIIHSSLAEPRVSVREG
Sequence of Large T antigen (P03070 whole entry): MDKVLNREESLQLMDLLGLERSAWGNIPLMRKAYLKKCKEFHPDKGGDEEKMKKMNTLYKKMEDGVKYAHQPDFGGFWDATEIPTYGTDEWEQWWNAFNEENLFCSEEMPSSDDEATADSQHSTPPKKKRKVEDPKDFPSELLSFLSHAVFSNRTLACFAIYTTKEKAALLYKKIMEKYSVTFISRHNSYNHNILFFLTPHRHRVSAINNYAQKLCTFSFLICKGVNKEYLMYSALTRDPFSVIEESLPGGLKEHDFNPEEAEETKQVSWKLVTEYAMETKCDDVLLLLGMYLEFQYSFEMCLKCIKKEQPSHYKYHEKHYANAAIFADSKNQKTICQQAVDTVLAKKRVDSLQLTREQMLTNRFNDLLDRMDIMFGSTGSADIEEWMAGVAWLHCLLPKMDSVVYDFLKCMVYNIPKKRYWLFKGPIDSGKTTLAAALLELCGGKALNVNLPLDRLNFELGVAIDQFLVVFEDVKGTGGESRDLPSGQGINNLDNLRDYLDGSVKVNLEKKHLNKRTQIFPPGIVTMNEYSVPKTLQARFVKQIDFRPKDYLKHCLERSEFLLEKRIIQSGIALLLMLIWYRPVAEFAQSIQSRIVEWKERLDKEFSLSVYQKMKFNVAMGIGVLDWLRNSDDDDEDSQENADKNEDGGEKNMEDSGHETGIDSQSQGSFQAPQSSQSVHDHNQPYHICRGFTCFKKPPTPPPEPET
Sequence of Cytochrome P450 2C19 (P33261 whole entry, the tested form may be a part): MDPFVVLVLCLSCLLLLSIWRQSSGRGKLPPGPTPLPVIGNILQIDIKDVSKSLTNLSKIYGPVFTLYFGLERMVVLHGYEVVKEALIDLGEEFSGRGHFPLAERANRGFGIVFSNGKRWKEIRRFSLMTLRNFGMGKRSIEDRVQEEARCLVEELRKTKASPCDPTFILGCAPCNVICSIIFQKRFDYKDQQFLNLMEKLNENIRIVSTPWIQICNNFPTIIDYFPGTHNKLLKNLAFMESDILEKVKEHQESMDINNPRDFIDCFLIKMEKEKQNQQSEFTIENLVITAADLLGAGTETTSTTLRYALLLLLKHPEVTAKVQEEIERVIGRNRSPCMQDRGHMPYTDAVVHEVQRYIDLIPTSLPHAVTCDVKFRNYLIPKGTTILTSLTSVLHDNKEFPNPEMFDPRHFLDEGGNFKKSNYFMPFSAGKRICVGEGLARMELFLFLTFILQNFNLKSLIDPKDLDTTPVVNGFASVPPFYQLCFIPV
Sequence of Paired box protein Pax-8 (Q06710 whole entry): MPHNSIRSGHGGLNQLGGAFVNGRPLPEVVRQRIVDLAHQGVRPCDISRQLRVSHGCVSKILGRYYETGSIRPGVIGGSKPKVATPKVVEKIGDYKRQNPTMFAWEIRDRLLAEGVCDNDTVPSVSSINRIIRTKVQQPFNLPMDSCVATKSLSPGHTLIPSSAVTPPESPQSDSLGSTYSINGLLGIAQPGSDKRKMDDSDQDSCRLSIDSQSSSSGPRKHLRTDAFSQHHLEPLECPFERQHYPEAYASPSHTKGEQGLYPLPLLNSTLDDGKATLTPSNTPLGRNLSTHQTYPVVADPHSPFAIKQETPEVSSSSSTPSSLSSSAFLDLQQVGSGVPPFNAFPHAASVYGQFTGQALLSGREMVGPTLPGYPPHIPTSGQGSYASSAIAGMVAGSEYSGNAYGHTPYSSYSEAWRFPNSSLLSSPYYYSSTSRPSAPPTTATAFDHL

- IC50 (Large T antigen): 9.69 µM (active)
SMILES: O=S(=O)(c1ccc(NC(=S)N2CCN(c3ccc(O)cc3)CC2)cc1)N1CCOCC1

- IC50 [1]: < 0.4 µM (not active)
SMILES: Cc1cccc(NC(=O)CN2C(=O)N/C(=C/c3ccc(C)o3)C2=O)c1

SMILES: CCc1ccc(CNC(=O)C2CCCN(c3nnc(C)c4c(C)n(-c5ccccc5)nc34)C2)cc1 (stereo not drawn)
- AC50 (Paired box protein Pax-8): 9.17 µM (active)
- EC50 [2]: 14.7 µM (inconclusive)

- EC50 [3]: 4.73 µM (active)
SMILES: CCCc1nc(SC2CCCC2)c2c(=O)n(C)c(=O)n(C)c2n1

- IC50 (Large T antigen): 19.3 µM (active)
SMILES: CN(C)c1ccc(C(=O)c2ccc(N(C)C)c(N)c2)cc1N

- IC50 [1]: 7.06 µM (not active)
SMILES: Cc1ccc(C(=O)Nc2ccc(N3CCCC3)cc2)c(C)c1

- IC50 [1]: 28.3 µM (not active)
- AC50 (Cytochrome P450 2C19): 3.98 µM (inconclusive)
SMILES: CCCCCc1nc2c(O)nc3ccccc3c2o1

- IC50 (Fatty acid synthase [4]): 7.07 µM (active)
- IC50 (Fatty acid synthase [5]): 5.67 µM (active)
SMILES: Cc1c(C(=O)OCCOc2ccc(Br)cc2)sc(=S)n1C

SMILES: O=C(Nc1ccccc1N1CCN(C(=O)c2ccc(Cl)cc2)CC1)c1cccc([N+](=O)[O-])c1
- EC50 [6]: > 260 µM (inactive)
- EC50 [7]: 1.34 µM (active)
- EC50 [8]: > 60 µM (not active)
- EC50 [3]: 0.376 µM (active)

- IC50 (Protein skinhead-1): > 100 µM (inactive)
- EC50 [3]: 5.31 µM (active)
SMILES: CC1CCN(C(C)C(=O)Nc2ccccc2-c2ccccc2)CC1 (stereo not drawn)

- EC50 [3]: 2.11 µM (active)
SMILES: CC(C)Cc1cc(CN2CCCC(CO)(Cc3cccc(Cl)c3)C2)[nH]n1 (stereo not drawn)

SMILES: C[C@@]12C(=O)Nc3cc(F)ccc3C(=O)N1[C@H]1c3ccccc3OC[C@@H]1[C@@H]2c1ccccc1
- IC50 (Fatty acid synthase [4]): 18.1 µM (active)
- IC50 (Fatty acid synthase [5]): 20.3 µM (inactive)

SMILES: CCn1nc(C)c(CN2CCCC(CO)(Cc3cccc(Cl)c3)C2)c1C (stereo not drawn)
- EC50 [7]: 0.247 µM (active)
- EC50 [8]: > 30 µM (not active)
- EC50 [3]: 1.06 µM (active)
